According to ChEMBL document CHEMBL3046243, “Synthesis, antifungal activity and SAR of N-substituted and N,N-disubstituted 2,4-dihydroxythiobenzamides” (J Pestic Sci, 2006):

Assays:
Rhizoctonia solani [1] = assay: Antifungal activity against Rhizoctonia solani assessed as inhibition of mycelial growth at 20 ppm at 21 +/- 1 degC measured after 4 days; assay type: functional; settings: 96 h, read-out: GI
Botrytis cinerea [2] = assay: Antifungal activity against Botryotinia fuckeliana assessed as inhibition of mycelial growth at 200 ppm at 21 +/- 1 degC measured after 3 days; assay type: functional; settings: 72 h, read-out: GI
[3] = Octanol-water partition coefficient, log P of the compound; assay type: physicochemical
Fusarium culmorum [4] = assay: Antifungal activity against Fusarium culmorum assessed as inhibition of mycelial growth at 20 ppm at 21 +/- 1 degC measured after 5 days; assay type: functional; settings: 120 h, read-out: GI
Botrytis cinerea [5] = assay: Antifungal activity against Botryotinia fuckeliana assessed as inhibition of mycelial growth at 20 ppm at 21 +/- 1 degC measured after 3 days; assay type: functional; settings: 72 h, read-out: GI
Phytophthora cactorum [6] = assay: Antifungal activity against Phytophthora cactorum assessed as inhibition of mycelial growth at 200 ppm at 21 +/- 1 degC measured after 5 days; assay type: functional; settings: 120 h, read-out: GI
Alternaria alternata [7] = assay: Antifungal activity against Alternaria alternata assessed as inhibition of mycelial growth at 200 ppm at 21 +/- 1 degC measured after 5 days; assay type: functional; settings: 120 h, read-out: GI
Fusarium culmorum [8] = assay: Antifungal activity against Fusarium culmorum assessed as inhibition of mycelial growth at 200 ppm at 21 +/- 1 degC measured after 5 days; assay type: functional; settings: 120 h, read-out: GI
Phytophthora cactorum [9] = assay: Antifungal activity against Phytophthora cactorum assessed as inhibition of mycelial growth at 20 ppm at 21 +/- 1 degC measured after 5 days; assay type: functional; settings: 120 h, read-out: GI
[10] = Lipophilicity, log K of the compound in water; assay type: physicochemical; settings: buffer
Alternaria alternata [11] = assay: Antifungal activity against Alternaria alternata assessed as inhibition of mycelial growth at 20 ppm at 21 +/- 1 degC measured after 5 days; assay type: functional; settings: 120 h, read-out: GI
Rhizoctonia solani [12] = assay: Antifungal activity against Rhizoctonia solani assessed as inhibition of mycelial growth at 200 ppm at 21 +/- 1 degC measured after 4 days; assay type: functional; settings: 96 h, read-out: GI

| logP [3] | logKw [10] | SMILES | inhibition of growth at 20 ppm (Rhizoctonia solani [1]) [%] | inhibition of growth at 200 ppm (Botrytis cinerea [2]) [%] | inhibition of growth at 20 ppm (Fusarium culmorum [4]) [%] | inhibition of growth at 20 ppm (Botrytis cinerea [5]) [%] | inhibition of growth at 200 ppm (Phytophthora cactorum [6]) [%] | inhibition of growth at 200 ppm (Alternaria alternata [7]) [%] | inhibition of growth at 200 ppm (Fusarium culmorum [8]) [%] | inhibition of growth at 20 ppm (Phytophthora cactorum [9]) [%] | inhibition of growth at 20 ppm (Alternaria alternata [11]) [%] | inhibition of growth at 200 ppm (Rhizoctonia solani [12]) [%] |
| --- | --- | --- | --- | --- | --- | --- | --- | --- | --- | --- | --- | --- |
| 4.22 | 3.56 | Oc1ccc(C(=S)Nc2cccc3c2CCCC3)c(O)c1 | 51 | 81 | 51 | 51 | 81 | 81 | 81 | 51 | 51 | 81 |
| 4.57 | 3.63 | Cc1cc(NC(=S)c2ccc(O)cc2O)ccc1N1C(=O)c2ccc(Cl)cc2C1=O | 0 | 0 | 0 | 0 | 0 | 21 | 21 | 0 | 0 | 0 |
| – | – | CC12CC1(C)C(=O)N(c1cc(Cl)cc(Cl)c1)C2=O (stereo not drawn) [PROCYMIDONE] | – | 81 | – | 81 | – | 81 | – | – | 81 | – |
| 2.79 | 2.49 | Oc1ccc(C(=S)Nc2ccc(N3CCOCC3)cc2)c(O)c1 | 0 | 21 | 0 | 0 | 21 | 0 | 21 | 0 | 0 | 0 |
| 3.29 | 3.59 | Oc1ccc(C(=S)Nc2ccccc2-n2cccc2)c(O)c1 | 51 | 81 | 51 | 21 | 81 | 81 | 81 | 21 | 21 | 81 |
| – | – | COC(=O)Nc1nc2ccccc2[nH]1 [CARBENDAZIM] | 81 | – | 81 | – | 81 | – | 81 | 81 | – | 81 |
| – | 3.3 | Oc1ccc(C(=S)N(c2ccccc2)c2nnns2)c(O)c1 | 21 | 81 | 21 | 51 | 81 | 81 | 81 | 21 | 51 | 81 |
| 4.45 | 2.99 | Oc1ccc(C(=S)Nc2nc(=S)ss2)c(O)c1 | 21 | 81 | 21 | 51 | 81 | 81 | 81 | 51 | 21 | 81 |
| 4.75 | 6.06 | Oc1ccc(C(=S)Nc2cc(C(F)(F)F)cc(C(F)(F)F)c2)c(O)c1 | 21 | 81 | 51 | 51 | 81 | 81 | 81 | 51 | 51 | 81 |
| – | – | CCCN(CCOc1c(Cl)cc(Cl)cc1Cl)C(=O)n1ccnc1 [PROCHLORAZ] | – | – | 81 | – | 81 | 81 | 81 | 81 | 81 | – |
| 3.43 | 3.96 | O=[N+]([O-])c1cc(NC(=S)c2ccc(O)cc2O)ccc1F | 51 | 81 | 21 | 21 | 81 | 81 | 81 | 21 | 21 | 81 |
| 4.27 | 4.55 | C=C(C)c1ccccc1NC(=S)c1ccc(O)cc1O | 51 | 81 | 51 | 51 | 81 | 81 | 81 | 51 | 51 | 81 |
| 3.89 | 4.87 | Cc1ccc2sc(-c3ccc(NC(=S)c4ccc(O)cc4O)cc3)nc2c1 | 0 | 0 | 0 | 0 | 0 | 21 | 21 | 0 | 0 | 0 |
| 4.12 | 4.28 | O=C(c1ccccc1)c1ccc(NC(=S)c2ccc(O)cc2O)cc1 | 0 | 51 | 0 | 0 | 51 | 51 | 51 | 21 | 0 | 51 |
| 4.56 | 3.96 | Oc1ccc(C(=S)N(Cc2ccccc2)c2ccccn2)c(O)c1 | 0 | 51 | 0 | 0 | 21 | 21 | 21 | 0 | 0 | 21 |
| 5.03 | 5.09 | CCN(C(=S)c1ccc(O)cc1O)c1cccc2ccccc12 | 0 | 0 | 0 | 0 | 21 | 21 | 21 | 0 | 0 | 0 |
| 2.39 | 2.52 | COc1ccc(NC(=S)c2ccc(O)cc2O)cc1O | 0 | 51 | 0 | 0 | 21 | 51 | 51 | 0 | 0 | 51 |
